Data published in article doi:10.1101/2021.10.07.463234v2 (biorxiv, 2021).
Counter-ions that a name gives are not always drawn.

Target: SARS-CoV-2 Mac1 (Severe acute respiratory syndrome coronavirus 2, UniProt P0DTD1)
Test: biochemical
Conditions: for inhibition at 100 µM: read-out: %inhibition; for %inhibition: 100 µM, inhibitor

SMILES | inhibition at 100 µM [%] | %inhibition [%]
CCCCCCCCCC(=O)N[C@@H](Cc1c[nH]c2ccccc12)C(=O)N[C@H](CC(N)=O)C(=O)N[C@@H](CC(=O)O)C(=O)N[C@@H]1C(=O)NCC(=O)N[C@@H](CCCN)C(=O)N[C@@H](CC(=O)O)C(=O)N[C@H](C)C(=O)N[C@@H](CC(=O)O)C(=O)NCC(=O)N[C@H](CO)C(=O)N[C@@H]([C@H](C)CC(=O)O)C(=O)N[C@@H](CC(=O)c2ccccc2N)C(=O)O[C@@H]1C [Daptomycin] | 1.7 | –
NC(=O)C(c1ccccc1)(c1ccccc1)[C@@H]1CCN(CCc2ccc3c(c2)CCO3)C1 [Darifenacin HBr] | 0 | –
CC(C)CN(C[C@@H](O)[C@H](Cc1ccccc1)NC(=O)O[C@H]1CO[C@H]2OCC[C@H]21)S(=O)(=O)c1ccc(N)cc1 [Darunavir Ethanolate] | 0 | –
COc1c(-c2ccc3cc(NS(C)(=O)=O)ccc3c2)cc(-n2ccc(=O)[nH]c2=O)cc1C(C)(C)C [Dasabuvir(ABT-333)] | 0.42 | –
COc1cccc2c1C(=O)c1c(O)c3c(c(O)c1C2=O)C[C@@](O)(C(C)=O)C[C@@H]3O[C@H]1C[C@H](N)[C@H](O)[C@H](C)O1 [Daunorubicin HCl] | 30.2 | –
C[N+](C)(C)CCCCCCCCCC[N+](C)(C)C [Decamethonium Bromide] | 0 | –
Nc1ncn([C@H]2C[C@H](O)[C@@H](CO)O2)c(=O)n1 [Decitabine] | 0 | –
CNC(=O)c1ccc(Nc2ncc(C(F)(F)F)c(NCc3nccnc3N(C)S(C)(=O)=O)n2)cc1 [Defactinib (VS-6063, PF-04554878)] | 0 | –
O=C(O)c1ccc(-n2nc(-c3ccccc3O)nc2-c2ccccc2O)cc1 [Deferasirox] | 16.8 | –
Cc1c(O)c(=O)ccn1C [Deferiprone] | 0 | –
CC(=O)OCC(=O)[C@@]12N=C(C)O[C@@H]1C[C@H]1[C@@H]3CCC4=CC(=O)C=C[C@]4(C)[C@H]3[C@@H](O)C[C@@]12C [Deflazacort] | 37.4 | –
C[C@H](CCC(=O)O)[C@H]1CC[C@H]2[C@@H]3C(=O)C[C@@H]4CC(=O)CC[C@]4(C)[C@H]3CC(=O)[C@]12C [Dehydrocholic acid] | 0 | –
CC(=O)O[C@H]1CC[C@@]2(C)C(=CC[C@@H]3[C@@H]2CC[C@]2(C)C(=O)CC[C@@H]32)C1 [Dehydroepiandrosterone acetate] | 15.8 | –
C[C@]1(COc2ccc(N3CCC(Oc4ccc(OC(F)(F)F)cc4)CC3)cc2)Cn2cc([N+](=O)[O-])nc2O1 [Delamanid] | 22.1 | –
CC(C)C[C@H](NC(=O)[C@@H](NC(=O)c1cccc(-c2ccccc2)n1)[C@@H](C)O)B(O)O [Delanzomib (CEP-18770)] | 0 | –
CCOC(=O)[C@H](CCc1ccccc1)N[C@@H](C)C(=O)N(CC(=O)O)C1Cc2ccccc2C1 [Delapril Hydrochloride] | 0.215 | –
CN(C)[C@@H]1C(O)=C(C(N)=O)C(=O)[C@@]2(O)C(O)=C3C(=O)c4c(O)ccc(Cl)c4[C@@H](O)[C@H]3C[C@@H]12 [Demeclocycline HCl] | 4.3 | –
C[C@H](CCC(=O)O)[C@H]1CC[C@H]2[C@@H]3CC[C@@H]4C[C@H](O)CC[C@]4(C)[C@H]3C[C@H](O)[C@]12C [Deoxycholic acid] | 0 | –
CC(=O)OCC(=O)[C@H]1CC[C@H]2[C@@H]3CCC4=CC(=O)CC[C@]4(C)[C@H]3CC[C@]12C [Deoxycorticosterone acetate] | 3.46 | –
CNCCCN1c2ccccc2CCc2ccccc21 [Desipramine Hydrochloride] | 15.3 | –
N=C(N)NCCC[C@@H](NC(=O)[C@@H]1CCCN1C(=O)[C@@H]1CSSCCC(=O)N[C@@H](Cc2ccc(O)cc2)C(=O)N[C@@H](Cc2ccccc2)C(=O)N[C@@H](CCC(N)=O)C(=O)N[C@@H](CC(N)=O)C(=O)N1)C(=O)NCC(N)=O [Desmopressin Acetate] | 8.25 | –
C#C[C@]1(O)CC[C@H]2[C@@H]3CCC4=CCCC[C@@H]4[C@H]3C(=C)C[C@@]21CC [Desogestrel] | 0 | –

SMILES | inhibition at 100 µM [%] | %inhibition [%]
CC1(C)O[C@@H]2C[C@H]3[C@@H]4CCC5=CC(=O)C=C[C@]5(C)[C@H]4[C@@H](O)C[C@]3(C)[C@]2(C(=O)CO)O1 [Desonide] | 17.1 | –
CN(C)CC(c1ccc(O)cc1)C1(O)CCCCC1 (stereo not drawn) [Desvenlafaxine Succinate] | 7.7 | –
CN(C)CC(c1ccc(O)cc1)C1(O)CCCCC1 (stereo not drawn) [Desvenlafaxine] | – | 6.836
Cc1cccc(Cc2c[nH]cn2)c1C [Detomidine HCl] | 0 | –
C[C@@H]1C[C@H]2[C@@H]3CCC4=CC(=O)C=C[C@]4(C)[C@@]3(F)[C@@H](O)C[C@]2(C)[C@@]1(O)C(=O)CO [Dexamethasone (DHAP)] | – | 0
CC(=O)OCC(=O)[C@@]1(O)[C@H](C)C[C@H]2[C@@H]3CCC4=CC(=O)C=C[C@]4(C)[C@@]3(F)[C@@H](O)C[C@@]21C [Dexamethasone Acetate] | 0 | –
Cc1c(OCC(F)(F)F)ccnc1C[S@@+]([O-])c1nc2ccccc2[nH]1 [Dexlansoprazole] | 13.9 | –
Cc1cccc([C@H](C)c2c[nH]cn2)c1C [Dexmedetomidine HCl] | – | 0
Cc1cccc([C@H](C)c2c[nH]cn2)c1C [Dexmedetomidine] | – | 18.38
C[C@@H](CN1CC(=O)NC(=O)C1)N1CC(=O)NC(=O)C1 [Dexrazoxane HCl (ICRF-187, ADR-529)] | – | 32.25
C[C@@H](CN1CC(=O)NC(=O)C1)N1CC(=O)NC(=O)C1 [Dexrazoxane] | – | 12.37
COc1ccc2c(c1)[C@]13CCCC[C@@H]1[C@H](C2)N(C)CC3 [Dextromethorphan hydrobromide hydrate] | 8.58 | –
OC[C@H]1OC(O)[C@H](O)[C@@H](O)[C@@H]1O (stereo partly drawn) [Dextrose] | 0 | –
CC(=O)Oc1cccc2c1C(=O)c1c(OC(C)=O)cc(C(=O)O)cc1C2=O [Diacerein] | 3.21 | –
C=C=CCNC(=O)c1ccc(F)cc1 [Diastase] | 0 | –
CC(=O)Nc1c(I)c(NC(C)=O)c(I)c(C(=O)O)c1I [Diatrizoate sodium] | 7.54 | –
CC1=Nc2ccc(Cl)cc2S(=O)(=O)N1 [Diazoxide] | 0 | –
CCCC(=O)Nc1ncnc2c1ncn2[C@@H]1O[C@@H]2COP(=O)(O)O[C@H]2[C@H]1OC(=O)CCC [Dibutyryl-cAMP (Bucladesine)] | 4.86 | –
Oc1ccc(Cl)cc1Cc1cc(Cl)ccc1O [Dichlorophene] | 15 | –
NS(=O)(=O)c1cc(Cl)c(Cl)c(S(N)(=O)=O)c1 [Dichlorphenamide (Diclofenamide)] | 3.01 | –
N#CC(c1ccc(Cl)cc1)c1c(Cl)cc(-n2ncc(=O)[nH]c2=O)cc1Cl (stereo not drawn) [Diclazuril] | 0 | –
O=C(O)Cc1ccccc1Nc1c(Cl)cccc1Cl [Diclofenac Diethylamine] | – | 0

SMILES | inhibition at 100 µM [%] | %inhibition [%]
O=C(O)Cc1ccccc1Nc1c(Cl)cccc1Cl [Diclofenac Potassium] | – | 7.108
O=C(O)Cc1ccccc1Nc1c(Cl)cccc1Cl [Diclofenac Sodium] | – | 15.35
Cc1onc(-c2c(Cl)cccc2Cl)c1C(=O)N[C@@H]1C(=O)N2[C@@H]1SC(C)(C)[C@@H]2C(=O)O [Dicloxacillin Sodium] | 10.8 | –
O=c1oc2ccccc2c(O)c1Cc1c(O)c2ccccc2oc1=O [Dicoumarol] | 13.4 | –
C[C@]12CCC3=C4CCC(=O)C=C4CC[C@H]3[C@@H]1CC[C@@]2(O)CC#N [Dienogest] | 22 | –
CCN(CC)C(=O)N1CCN(C)CC1 [Diethylcarbamazine citrate] | 0 | –
CN1CCN(c2cc3c(cc2F)c(=O)c(C(=O)O)cn3-c2ccc(F)cc2)CC1 [Difloxacin HCl] | 2.61 | –
O=C(O)c1cc(-c2ccc(F)cc2F)ccc1O [Diflunisal] | 0.967 | –
CCCC(=O)O[C@]1(C(=O)COC(C)=O)CC[C@H]2[C@@H]3C[C@H](F)C4=CC(=O)C=C[C@]4(C)[C@@]3(F)[C@@H](O)C[C@@]21C [Difluprednate] | 22.2 | –
C[C@H]1O[C@@H](O[C@H]2[C@@H](O)C[C@H](O[C@H]3[C@@H](O)C[C@H](O[C@H]4CC[C@@]5(C)[C@H](CC[C@@H]6[C@@H]5C[C@@H](O)[C@]5(C)[C@@H](C7=CC(=O)OC7)CC[C@]65O)C4)O[C@@H]3C)O[C@@H]2C)C[C@H](O)[C@@H]1O [Digoxin] | 13.2 | –
N/N=c1\[nH][nH]/c(=N\N)c2ccccc12 [Dihydralazine sulphate] | 45.1 | –
C[C@H]1[C@@H](O)O[C@@H]2O[C@@]3(C)CC[C@H]4[C@H](C)CC[C@@H]1[C@@]24OO3 [Dihydroartemisinin (DHA)] | 0 | –
CN[C@@H]1[C@H](O[C@H]2[C@H](O[C@H]3[C@H](O)[C@@H](O)[C@H](N=C(N)N)[C@@H](O)[C@@H]3N=C(N)N)O[C@@H](C)[C@]2(O)CO)O[C@@H](CO)[C@H](O)[C@H]1O [Dihydrostreptomycin sulfate] | 6.08 | –
Oc1c(I)cc(I)c2cccnc12 [Diiodohydroxyquinoline] | 6.28 | –
COc1ccc([C@@H]2Sc3ccccc3N(CCN(C)C)C(=O)[C@@H]2OC(C)=O)cc1 [Diltiazem HCl] | 25.7 | –
Cc1ccc2c(c1)[C@]13CCCC[C@@H]1[C@H](C2)N(C)CC3 [Dimemorfan phosphate] | 0 | –
O=S(=O)(O)CCSSCCS(=O)(=O)O [Dimesna] | 22.1 | –
COC(=O)/C=C/C(=O)OC [Dimethyl Fumarate] | 23.8 | –
Cc1c(C(N)=O)cc([N+](=O)[O-])cc1[N+](=O)[O-] [Dinitolmide] | 6.05 | –
CCCCC[C@H](O)/C=C/[C@@H]1[C@@H](C/C=C\CCCC(=O)O)[C@@H](O)C[C@H]1O [Dinoprost tromethamine] | 32.6 | –
COc1ccc(-c2cc(=O)c3c(O)cc(O[C@@H]4O[C@H](CO[C@@H]5O[C@@H](C)[C@H](O)[C@@H](O)[C@H]5O)[C@@H](O)[C@H](O)[C@H]4O)cc3o2)cc1O [Diosmin] | 11.9 | –
O=C(Nc1ccccc1)OCC(CN1CCCCC1)OC(=O)Nc1ccccc1 (stereo not drawn) [Diperodon HCl] | 0.82 | –
